Experimental data taken from patent US9695155B2, “Herbicidal substituted pyrimidinyloxy benzene compounds” (E. I. DU PONT DE NEMOURS AND COMPANY, priority 2013, dated 2017).

Experiments:
[1] = test system: bluegrass; assay: Test D preemergence; format: in vivo, Poa annua; settings: Poa annua, pre-emergence, scale 0-100, read-out: Plant response rating, Bluegrass
Outline: (§1)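 Visual ratings from 0 (no effect) to 100 (complete control) relative to untreated plants were taken 7–21 days after treatment. Chemicals in a surfactant-containing solvent mixture were applied preemergence to seeds in silt loam, or postemergence to plants 2–18 cm tall (1–4 leaves) grown in a peat-based potting medium.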

[2] = test system: lambsquarters; assay: Test D preemergence; format: in vivo, Chenopodium album; settings: Chenopodium album, pre-emergence, scale 0-100, read-out: Plant response rating, Lambsquarters
Outline: as §1

[3] = test system: oilseed rape; assay: Test D preemergence; format: in vivo, Brassica napus; settings: Brassica napus, pre-emergence, scale 0-100, read-out: Plant response rating, Oilseed Rape
Outline: as §1

[4] = test system: speedwell; assay: Test D preemergence; format: in vivo, Veronica persica; settings: Veronica persica, pre-emergence
Outline: as §1

[5] = test system: spring wheat; assay: Test D preemergence; format: in vivo, Triticum aestivum; settings: Triticum aestivum, pre-emergence
Outline: as §1

[6] = test system: winter wheat; assay: Test D preemergence; format: in vivo, Triticum aestivum; settings: Triticum aestivum, pre-emergence
Outline: as §1

[7] = test system: Italian ryegrass; assay: Test D postemergence; format: in vivo, Lolium multiflorum; settings: Lolium multiflorum, post-emergence, scale 0 to 100 (0 no effect, 100 complete control), read-out: Plant response rating, Ryegrass, Italian
Outline: as §1

[8] = test system: oilseed rape; assay: Test D postemergence; format: in vivo, Brassica napus; settings: Brassica napus, post-emergence, scale 0 to 100 (0 no effect, 100 complete control), read-out: Plant response rating, Oilseed Rape
Outline: as §1

[9] = test system: speedwell; assay: Test D postemergence; format: in vivo, Veronica persica; settings: Veronica persica, post-emergence, scale 0 to 100 (0 no effect, 100 complete control), read-out: Plant response rating, Speedwell
Outline: as §1

[10] = test system: wild oat; assay: Test D postemergence; format: in vivo, Avena fatua; settings: Avena fatua, post-emergence, scale 0 to 100 (0 no effect, 100 complete control), read-out: Plant response rating, Oat, Wild
Outline: as §1

[11] = test system: wild radish; assay: Test D postemergence; format: in vivo, Raphanus raphanistrum; settings: Raphanus raphanistrum, post-emergence, scale 0 to 100 (0 no effect, 100 complete control), read-out: Plant response rating, Radish, Wild
Outline: as §1

[12] = test system: fall panicum; assay: Test E postemergence; format: in vivo, Panicum dichotomiflorum; settings: Panicum dichotomiflorum, post-emergence, read-out: Plant response rating, Panicum, Fall
Outline: (§2)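 Compound in a non-phytotoxic solvent mixture with surfactant was applied preemergence to seeds in silt loam soil, or postemergence to plants 2 to 18 cm tall grown in peat-based potting medium. Plants were kept in a greenhouse for 14 to 21 days, then rated visually against untreated controls on a 0 (no effect) to 100 (complete control) scale.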

[13] = test system: arrowleaf sida; assay: Test E postemergence; format: in vivo, Sida rhombifolia; settings: Sida rhombifolia, post-emergence, read-out: Plant response rating, Arrowleaf Sida
Outline: as §2

[14] = test system: dayflower; assay: Test E postemergence; format: in vivo, Commelina virginica; settings: Commelina virginica, post-emergence, read-out: Plant response rating, Dayflower, VA
Outline: as §2

[15] = Postemergence, 31 g ai/ha, scale 0 to 100
[16] = Postemergence, 62 g ai/ha, scale 0 to 100
[17] = Postemergence, 125 g ai/ha, scale 0 to 100
[18] = Postemergence, 250 g ai/ha, scale 0 to 100
[19] = postemergence, 16 g ai/ha, scale 0 to 100, 0 no effect, 100 complete control

`N#Cc1cccc(Oc2ncc(Cl)cn2)c1-n1cc(C(F)(F)F)cn1` [Compound 58, 3-[(5-chloro-2-pyrimidinyl)oxy]-2-[4-(trifluoromethyl)-1H-pyrazol-1-yl]benzonitrile] was tested, and the pest or weed control at 31 g/ha ([1]; 31 g ai/ha) was 10%, the pest or weed control at 62 g/ha ([1]; 62 g ai/ha) was 50% and the pest or weed control at 125 g/ha ([1]; 125 g ai/ha) was 100%. It also gave a pest or weed control at 250 g/ha ([1]; 250 g ai/ha) of 100%, a pest or weed control at 31 g/ha ([2]; 31 g ai/ha) of 100% and a pest or weed control at 62 g/ha ([2]; 62 g ai/ha) of 100%. For the same compound, the pest or weed control at 125 g/ha ([2]; 125 g ai/ha) was 100%, the pest or weed control at 250 g/ha ([2]; 250 g ai/ha) was 100% and the plant injury at 31 g/ha ([3]; 31 g ai/ha) was 100%. It also gave a plant injury at 62 g/ha ([3]; 62 g ai/ha) of 100%, a plant injury at 125 g/ha ([3]; 125 g ai/ha) of 100% and a plant injury at 250 g/ha ([3]; 250 g ai/ha) of 100%. For the same compound, the pest or weed control at 31 g/ha ([4]; 31 g ai/ha, scale 0 (no effect) to 100 (complete control), read-out: Plant response rating, Speedwell) was 100%, the pest or weed control at 62 g/ha ([4]; 62 g ai/ha, scale 0-100, read-out: Plant response rating, Speedwell) was 100% and the pest or weed control at 125 g/ha ([4]; 125 g ai/ha, scale 0-100, read-out: Plant response rating, Speedwell) was 100%. The pest or weed control at 250 g/ha ([4]; 250 g ai/ha, scale 0-100, read-out: Plant response rating, Speedwell) was 100%, the plant injury at 31 g/ha ([5]; 31 g ai/ha, scale 0 (no effect) to 100 (complete control), read-out: Plant response rating, Wheat, Spring) was 0% and the plant injury at 62 g/ha ([5]; 62 g ai/ha, scale 0-100, read-out: Plant response rating, Wheat, Spring) was 15%. It also gave a plant injury at 125 g/ha ([5]; 125 g ai/ha, scale 0-100, read-out: Plant response rating, Wheat, Spring) of 75%, a plant injury at 250 g/ha ([5]; 250 g ai/ha, scale 0-100, read-out: Plant response rating, Wheat, Spring) of 100% and a plant injury at 31 g/ha ([6]; 31 g ai/ha, scale 0 (no effect) to 100 (complete control), read-out: Plant response rating, Wheat, Winter) of 0%. It also gave a plant injury at 62 g/ha ([6]; 62 g ai/ha, scale 0-100, read-out: Plant response rating, Wheat, Winter) of 20%, a plant injury at 125 g/ha ([6]; 125 g ai/ha, scale 0-100, read-out: Plant response rating, Wheat, Winter) of 50% and a plant injury at 250 g/ha ([6]; 250 g ai/ha, scale 0-100, read-out: Plant response rating, Wheat, Winter) of 90%. It also gave a pest or weed control at 31 g/ha ([7]; 31 g ai/ha) of 10%, a pest or weed control at 62 g/ha ([7]; 62 g ai/ha) of 20% and a pest or weed control at 125 g/ha ([7]; 125 g ai/ha) of 50%. It also gave a pest or weed control at 250 g/ha ([7]; 250 g ai/ha) of 65%, a plant injury at 31 g/ha ([8]; 31 g ai/ha) of 55% and a plant injury at 62 g/ha ([8]; 62 g ai/ha) of 85%. The plant injury at 125 g/ha ([8]; 125 g ai/ha) was 95%, the plant injury at 250 g/ha ([8]; 250 g ai/ha) was 95% and the pest or weed control at 31 g/ha ([9]; 31 g ai/ha) was 100%. The pest or weed control at 62 g/ha ([9]; 62 g ai/ha) was 100%, the pest or weed control at 125 g/ha ([9]; 125 g ai/ha) was 100% and the pest or weed control at 250 g/ha ([9]; 250 g ai/ha) was 100%. For the same compound, the pest or weed control at 31 g/ha ([10]; 31 g ai/ha) was 30%, the pest or weed control at 62 g/ha ([10]; 62 g ai/ha) was 35% and the pest or weed control at 125 g/ha ([10]; 125 g ai/ha) was 35%. For the same compound, the pest or weed control at 250 g/ha ([10]; 250 g ai/ha) was 55%, the pest or weed control at 31 g/ha ([11]; 31 g ai/ha) was 65% and the pest or weed control at 62 g/ha ([11]; 62 g ai/ha) was 70%. It also gave a pest or weed control at 125 g/ha ([11]; 125 g ai/ha) of 90%, a pest or weed control at 250 g/ha ([11]; 250 g ai/ha) of 95% and a pest or weed control at 31 g/ha [12, 15] of 30%. It also gave a pest or weed control at 62 g/ha [12, 16] of 40%, a pest or weed control at 125 g/ha [12, 17] of 60% and a pest or weed control at 250 g/ha [12, 18] of 60%. For the same compound, the pest or weed control at 16 g/ha [12, 19] was 20%, the pest or weed control at 31 g/ha [13, 15] was 80% and the pest or weed control at 62 g/ha [13, 16] was 90%. The pest or weed control at 125 g/ha [13, 17] was 95%, the pest or weed control at 250 g/ha [13, 18] was 98% and the pest or weed control at 16 g/ha [13, 19] was 70%. The pest or weed control at 31 g/ha [14, 15] was 60%, the pest or weed control at 62 g/ha [14, 16] was 75% and the pest or weed control at 125 g/ha [14, 17] was 90%. For the same compound, the pest or weed control at 250 g/ha [14, 18] was 100% and the pest or weed control at 16 g/ha [14, 19] was 50%.
